Reference: patent publication US20180228799A1, “Treatment for Neurological and Mental Disorders” (PSYCHOGENICS, INC., priority 2008, published 2018)
pKi: −log10 of the molar value. Entries after “also recorded” stand apart in the source; their conditions may differ.

Assays:
[1] = tested on: symptoms of ADHD in adults; experiment: ADHD-RS-IV, double-blind placebo-controlled crossover trial in adults with ADHD; type: in vivo, human; details: for ADHD-RS-IV Inattention subscale, Baseline Score / ADHD-RS-IV Hyperactivity subscale, Baseline Score / ADHD-RS-IV Impulsivity subscale, Baseline Score / ADHD-RS-IV Total score, Baseline Score: before treatment
Description: The primary objective of this study was to compare the effects of two doses of eltoprazine with placebo on symptoms of ADHD in adults. The primary efficacy parameter is the Attention-Deficit/Hyperactivity Disorder Rating Scale-IV (ADHD-RS-IV).
(§1) This double-blind, multiple-dose, placebo-controlled, crossover study was conducted to assess the effects of 14 days of oral eltoprazine treatment in 48 adults with ADHD. Subjects eligible for study enrollment were to have met Diagnostic and Statistical Manual of Mental Disorders, Fourth Edition, Text Revision (DSM-IV-TR) criteria for ADHD. Assessment was to be made by clinical history, a Structured Clinical Interview for DSM-IV Axis Disorders-Research Version (SCID-RV), and a Conners' Adult ADHD Diagnostic Interview for DSM IV (CAADID).
(§2) Oral doses of eltoprazine hydrochloride were 5 mg/day or 10 mg/day for 14 consecutive days (i.e., 2.5 or 5 mg twice daily (bid), respectively). Eltoprazine hydrochloride was administered in gelatin capsules with calcium hydrogen phosphate, 2H2O, maize starch NF, polyethylene glycol 6000 NF and magnesium stearate NF as excipients.
Primary endpoints were evaluated with the ADHD-RS-IV. After 14 days of treatment with placebo, 5 mg/day, or 10 mg/day eltoprazine, overall symptoms of ADHD were improved as measured by the ADHD-RS-IV, in which higher scores reflect greater impairment.
ADHD-RS-IV, CPT, and CGI-I scores were analyzed separately for those subjects whose baseline score was >40, indicating greater impairment. Twenty-two subjects had baseline ADHD-RS-IV total scores >40.

[2] = tested on: symptoms of ADHD in adults; experiment: Continuous Performance Test (CPT), same trial; type: in vivo, human; details: 5 or 10 mg/day, 14 days
Description: as §1, §2
Secondary endpoints were evaluated with the Clinical Global Impressions-Improvement (CGI-I) and Continuous Performance Test. (CPT). The CGI-I test is used to determine the […] of improvement.

[3] = tested on: Male Wistar rats; experiment: Novel Object Recognition Test (NOR); type: in vivo; details: 0.3, 1, 3, and 10 mg/kg, 1 h prior to training, 24 hours post training, FIG. 3
Text: In addition to working memory deficits, the initiative, “Measurement and Treatment Research to Improve Cognition in Schizophrenia” (MATRICS) has identified other domains of learning and memory in which schizophrenia patients show impaired visual learning and memory. There are several visual learning and memory tasks appropriate for study in rodents (Powell, S. B. and M. A. Geyer, Overview of animal models of schizophrenia. Curr Protoc Neurosci, 2007. Chapter 9: p. Unit 9 24). […]
Male Wistar rats were assessed for cognitive ability in a test apparatus comprising an open-field arena placed in a sound-attenuated room under dimmed lighting. […] All tests were video scored by an observer blind to treatment. […] Each rat was placed in the arena facing the same direction at the same position, and the time spent actively exploring the objects during a 10-minute test period was recorded. […] After 24 hours, each rat was placed again in the test arena for 10 minutes in the presence of one of the familiar objects and a novel object, and the time spent exploring both objects was recorded. […] The percent time spent exploring the novel object was recorded.

[4] = molecular target: dopamine receptors; details: Schipper et al.; read-out: Ki (affinity for dopamine receptors); cited from earlier work
[5] = tested on: 5-HT1; details: selective with respect to all receptors other than 5-HT1; cited from earlier work
[6] = molecular target: T1, 5-HT2C receptors (Homo sapiens, UniProt P28335); details: relative to 5-HT1A, 5-HT1B; Schipper et al.; cited from earlier work
T1 sequence (P28335 33-458): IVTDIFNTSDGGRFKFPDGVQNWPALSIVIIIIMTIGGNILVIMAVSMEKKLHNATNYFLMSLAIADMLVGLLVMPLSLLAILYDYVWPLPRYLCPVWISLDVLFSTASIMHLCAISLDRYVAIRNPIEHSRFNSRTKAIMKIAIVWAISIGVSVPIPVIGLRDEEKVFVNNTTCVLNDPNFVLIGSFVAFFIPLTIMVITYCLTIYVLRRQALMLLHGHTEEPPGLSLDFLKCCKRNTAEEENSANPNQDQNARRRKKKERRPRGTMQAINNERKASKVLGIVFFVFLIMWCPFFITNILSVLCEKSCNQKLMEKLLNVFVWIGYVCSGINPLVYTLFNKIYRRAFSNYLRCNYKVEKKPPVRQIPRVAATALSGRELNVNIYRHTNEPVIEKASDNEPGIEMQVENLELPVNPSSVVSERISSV

[7] = 5 mg/day oral, 14 days, all patients N = 38
[8] = 5 mg/day oral, all patients N = 38
[9] = 10 mg/day oral, 14 days, all patients N = 37
[10] = 10 mg/day oral, all patients N = 37
[11] = subjects with baseline score >40 (more severe ADHD), 5 mg/day, 14 days

c1cc2c(c(N3CCNCC3)c1)OCCO2 [Eltoprazine, 1-(2,3-dihydro-1,4-benzodioxanyl-5-yl) piperazine]
ADHD-RS-IV Inattention subscale, Post Treatment Score ([1]; 5 mg/day oral (2.5 mg bid), 14 days, all patients N = 38): 14.5 | ADHD-RS-IV Inattention subscale, Baseline Score ([1]; 5 mg/day oral (2.5 mg bid), all patients N = 38): 23.8 | ADHD-RS-IV Hyperactivity subscale, Change from Baseline [1, 7]: −5.9 | ADHD-RS-IV Hyperactivity subscale, Change from Baseline (percent decrease) [1, 7]: 47% | ADHD-RS-IV Hyperactivity subscale, Post Treatment Score [1, 7]: 6.6 | ADHD-RS-IV Impulsivity subscale, Change from Baseline [1, 7]: −2.7 | ADHD-RS-IV Impulsivity subscale, Change from Baseline (percent decrease) [1, 7]: 44% | ADHD-RS-IV Impulsivity subscale, Post Treatment Score [1, 7]: 3.4 | ADHD-RS-IV Inattention subscale, Change from Baseline [1, 7]: −9.4 | ADHD-RS-IV Inattention subscale, Change from Baseline (percent decrease) [1, 7]: 39% | ADHD-RS-IV Total score, Change from Baseline [1, 7]: −17.9 | ADHD-RS-IV Total score, Change from Baseline (percent decrease) [1, 7]: (42%) | ADHD-RS-IV Total score, Post Treatment Score [1, 7]: 24.5 | ADHD-RS-IV Total score, Change from Baseline (percent decrease) ([1]; 5 mg/day oral, 14 days, all patients N = 38, listed as eltoprazine): 42% | ADHD-RS-IV Hyperactivity subscale, Baseline Score [1, 8]: 12.5 | ADHD-RS-IV Impulsivity subscale, Baseline Score [1, 8]: 6.1 | ADHD-RS-IV Total score, Baseline Score [1, 8]: 42.4 | ADHD-RS-IV Inattention subscale, Post Treatment Score ([1]; 10 mg/day oral (5 mg bid), 14 days, all patients N = 37): 14.8 | ADHD-RS-IV Inattention subscale, Baseline Score ([1]; 10 mg/day oral (5 mg bid), all patients N = 37): 23.8 | ADHD-RS-IV Hyperactivity subscale, Change from Baseline [1, 9]: −5.5 | ADHD-RS-IV Hyperactivity subscale, Change from Baseline (percent decrease) [1, 9]: 43% | ADHD-RS-IV Hyperactivity subscale, Post Treatment Score [1, 9]: 7.2 | ADHD-RS-IV Impulsivity subscale, Change from Baseline [1, 9]: −2.9 | ADHD-RS-IV Impulsivity subscale, Change from Baseline (percent decrease) [1, 9]: 47% | ADHD-RS-IV Impulsivity subscale, Post Treatment Score [1, 9]: 3.2 | ADHD-RS-IV Inattention subscale, Change from Baseline [1, 9]: −9.0 | ADHD-RS-IV Inattention subscale, Change from Baseline (percent decrease) [1, 9]: 38% | ADHD-RS-IV Total score, Change from Baseline [1, 9]: −17.4 | ADHD-RS-IV Total score, Change from Baseline (percent decrease) [1, 9]: (41%) | ADHD-RS-IV Total score, Post Treatment Score [1, 9]: 25.3 | ADHD-RS-IV Total score, Change from Baseline (percent decrease) ([1]; 10 mg/day oral, 14 days, all patients N = 37, listed as eltoprazine): 41% | ADHD-RS-IV Hyperactivity subscale, Baseline Score [1, 10]: 12.8 | ADHD-RS-IV Impulsivity subscale, Baseline Score [1, 10]: 6.1 | ADHD-RS-IV Total score, Baseline Score [1, 10]: 42.7 | Selective action on ADHD symptoms (inattention, hyperactivity, impulsivity) ([1]; human clinical study in patients with ADHD): predominantly on inattention and hyperactivity and to a lesser degree impulsivity; also recorded: greater activity treating hyperactivity and inattention compared to impulsivity | ADHD-RS-IV hyperactivity subscale score, decrease from baseline (improvement) [1, 11]: 56% | ADHD-RS-IV impulsivity subscale score, decrease from baseline (improvement) [1, 11]: 55% | ADHD-RS-IV inattention subscale score, decrease from baseline (improvement) [1, 11]: 54% | ADHD-RS-IV total score, decrease from baseline [1, 11]: 55% | CPT findings [2]: did not result in any statistically significant findings | Novel object recognition (NOR) memory vs. vehicle-treated controls [3]: significantly improved | pKi [4]: < 6.00 | Binding selectivity [5]: selective 5-HT1 ligand | Binding affinity for 5-HT2C receptors [6]: somewhat lower affinity
